From ChEMBL document CHEMBL4507324 (2021)

Assays:
Conditions in all cases: Compound concentration 100.0 nM
[1] = test system: Tyrosine-protein kinase ABL1 (Homo sapiens), P00519 [T315I]
[2] = biological target: 5'-AMP-activated protein kinase catalytic subunit alpha-2 (Homo sapiens) (UniProt P54646)
[3] = biological target: Mitogen-activated protein kinase kinase kinase 5 (Homo sapiens) (UniProt Q99683)
[4] = biological target: Aurora kinase B (Homo sapiens) (UniProt Q96GD4)
[5] = biological target: BMP-2-inducible protein kinase (Homo sapiens) (UniProt Q9NSY1)
[6] = biological target: Tyrosine-protein kinase Blk (Homo sapiens) (UniProt P51451)
[7] = biological target: Cytoplasmic tyrosine-protein kinase BMX (Homo sapiens) (UniProt P51813)
[8] = biological target: Calcium/calmodulin-dependent protein kinase type II subunit alpha (Homo sapiens) (UniProt Q9UQM7)
[9] = biological target: Calcium/calmodulin-dependent protein kinase type II subunit beta (Homo sapiens) (UniProt Q13554)
[10] = biological target: Cyclin-dependent kinase-like 2 (Homo sapiens) (UniProt Q92772)
[11] = biological target: Dual specificity protein kinase CLK3 (Homo sapiens) (UniProt P49761)
[12] = biological target: Casein kinase I isoform alpha-like (Homo sapiens) (UniProt Q8N752)
[13] = biological target: Mitogen-activated protein kinase kinase kinase 12 (Homo sapiens) (UniProt Q12852)
[14] = biological target: Dual specificity tyrosine-phosphorylation-regulated kinase 1B (Homo sapiens) (UniProt Q9Y463)
[15] = test system: Epidermal growth factor receptor (Homo sapiens), P00533 [UNDEFINED MUTATION]
[16] = biological target: Ephrin type-A receptor 8 (Homo sapiens) (UniProt P29322)
[17] = biological target: Ephrin type-B receptor 3 (Homo sapiens) (UniProt P54753)
[18] = test system: Receptor-type tyrosine-protein kinase FLT3 (Homo sapiens), P36888 [UNDEFINED MUTATION]
[19] = test system: Receptor-type tyrosine-protein kinase FLT3 (Homo sapiens), P36888 [N841I]
[20] = biological target: Tyrosine-protein kinase HCK (Homo sapiens) (UniProt P08631)
[21] = biological target: Homeodomain-interacting protein kinase 3 (Homo sapiens) (UniProt Q9H422)
[22] = biological target: Interleukin-1 receptor-associated kinase 4 (Homo sapiens) (UniProt Q9NWZ3)
[23] = biological target: Serine/threonine-protein kinase MRCK alpha (Homo sapiens) (UniProt Q5VT25)
[24] = biological target: Macrophage-stimulating protein receptor (Homo sapiens) (UniProt Q04912)
[25] = biological target: Serine/threonine-protein kinase 24 (Homo sapiens) (UniProt Q9Y6E0)
[26] = biological target: Muscle, skeletal receptor tyrosine-protein kinase (Homo sapiens) (UniProt O15146)
[27] = biological target: Mitogen-activated protein kinase kinase kinase 14 (Homo sapiens) (UniProt Q99558)
[28] = biological target: Serine/threonine-protein kinase NIM1 (Homo sapiens) (UniProt Q8IY84)
[29] = biological target: Mitogen-activated protein kinase 13 (Homo sapiens) (UniProt O15264)
[30] = biological target: Serine/threonine-protein kinase PAK 3 (Homo sapiens) (UniProt O75914)
[31] = biological target: Calcium-dependent protein kinase 1 (Plasmodium falciparum) (UniProt P62344)
[32] = biological target: Phosphatidylinositol 3-kinase C2 domain-containing subunit gamma (Homo sapiens) (UniProt O75747)
[33] = test system: Phosphatidylinositol 4,5-bisphosphate 3-kinase catalytic subunit alpha isoform (Homo sapiens), P42336 [H1047Y]
[34] = test system: Phosphatidylinositol 4,5-bisphosphate 3-kinase catalytic subunit alpha isoform (Homo sapiens), P42336 [I800L]
[35] = biological target: Serine/threonine-protein kinase PknB (Mycobacterium tuberculosis) (UniProt P9WI81)
[36] = biological target: Rho-associated protein kinase 1 (Homo sapiens) (UniProt Q13464)
[37] = biological target: Ribosomal protein S6 kinase alpha-2 (Homo sapiens) (UniProt Q15349)
[38] = biological target: Ribosomal protein S6 kinase alpha-6 (Homo sapiens) (UniProt Q9UK32)
[39] = biological target: Serine/threonine-protein kinase SIK1 (Homo sapiens) (UniProt P57059)
[40] = biological target: SNF-related serine/threonine-protein kinase (Homo sapiens) (UniProt Q9NRH2)
[41] = biological target: STE20/SPS1-related proline-alanine-rich protein kinase (Homo sapiens) (UniProt Q9UEW8)
[42] = biological target: Tyrosine-protein kinase receptor TYRO3 (Homo sapiens) (UniProt Q06418)
[43] = biological target: Vascular endothelial growth factor receptor 2 (Homo sapiens) (UniProt P35968)
[44] = biological target: Serine/threonine-protein kinase WNK3 (Homo sapiens) (UniProt Q9BYP7)

SNF-related serine/threonine-protein kinase (Homo sapiens), sequence (Q9NRH2 whole entry): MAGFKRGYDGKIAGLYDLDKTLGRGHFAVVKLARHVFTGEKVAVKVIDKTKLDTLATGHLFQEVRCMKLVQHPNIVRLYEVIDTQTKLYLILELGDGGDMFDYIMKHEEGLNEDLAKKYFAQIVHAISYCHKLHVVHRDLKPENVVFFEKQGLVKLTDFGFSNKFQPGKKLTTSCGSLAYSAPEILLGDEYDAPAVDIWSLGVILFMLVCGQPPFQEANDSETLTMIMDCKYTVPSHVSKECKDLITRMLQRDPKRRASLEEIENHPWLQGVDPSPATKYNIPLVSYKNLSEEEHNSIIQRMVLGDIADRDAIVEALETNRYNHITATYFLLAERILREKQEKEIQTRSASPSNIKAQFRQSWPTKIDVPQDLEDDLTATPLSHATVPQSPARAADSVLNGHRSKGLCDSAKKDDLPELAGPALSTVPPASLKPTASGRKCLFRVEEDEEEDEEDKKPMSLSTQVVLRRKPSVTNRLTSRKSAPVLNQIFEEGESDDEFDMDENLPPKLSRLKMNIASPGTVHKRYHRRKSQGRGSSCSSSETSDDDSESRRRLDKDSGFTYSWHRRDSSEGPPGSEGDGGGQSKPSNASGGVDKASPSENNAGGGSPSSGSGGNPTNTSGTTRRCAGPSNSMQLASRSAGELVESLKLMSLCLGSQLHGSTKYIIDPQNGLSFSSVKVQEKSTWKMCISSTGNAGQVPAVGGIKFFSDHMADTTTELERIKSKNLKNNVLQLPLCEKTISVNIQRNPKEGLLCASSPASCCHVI
Cytoplasmic tyrosine-protein kinase BMX (Homo sapiens), sequence (P51813 whole entry): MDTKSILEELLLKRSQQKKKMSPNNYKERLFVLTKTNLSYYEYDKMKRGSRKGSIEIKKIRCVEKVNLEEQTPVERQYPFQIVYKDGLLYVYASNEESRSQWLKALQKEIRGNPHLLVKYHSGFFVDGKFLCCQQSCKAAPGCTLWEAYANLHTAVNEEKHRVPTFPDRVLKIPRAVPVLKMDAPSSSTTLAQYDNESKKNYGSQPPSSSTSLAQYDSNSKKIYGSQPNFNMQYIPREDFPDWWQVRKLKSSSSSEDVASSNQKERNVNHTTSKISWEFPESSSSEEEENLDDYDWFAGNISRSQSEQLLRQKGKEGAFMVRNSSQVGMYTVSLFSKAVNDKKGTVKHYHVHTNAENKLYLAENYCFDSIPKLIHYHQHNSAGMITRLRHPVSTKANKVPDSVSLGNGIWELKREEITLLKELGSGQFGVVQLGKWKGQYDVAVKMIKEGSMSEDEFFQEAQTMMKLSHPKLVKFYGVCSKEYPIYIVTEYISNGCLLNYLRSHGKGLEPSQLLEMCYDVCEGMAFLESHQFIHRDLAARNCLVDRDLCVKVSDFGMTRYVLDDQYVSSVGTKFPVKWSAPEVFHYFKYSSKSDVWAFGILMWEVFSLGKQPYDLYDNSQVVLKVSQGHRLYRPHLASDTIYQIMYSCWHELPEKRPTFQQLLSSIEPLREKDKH
Serine/threonine-protein kinase MRCK alpha (Homo sapiens), sequence (Q5VT25 whole entry): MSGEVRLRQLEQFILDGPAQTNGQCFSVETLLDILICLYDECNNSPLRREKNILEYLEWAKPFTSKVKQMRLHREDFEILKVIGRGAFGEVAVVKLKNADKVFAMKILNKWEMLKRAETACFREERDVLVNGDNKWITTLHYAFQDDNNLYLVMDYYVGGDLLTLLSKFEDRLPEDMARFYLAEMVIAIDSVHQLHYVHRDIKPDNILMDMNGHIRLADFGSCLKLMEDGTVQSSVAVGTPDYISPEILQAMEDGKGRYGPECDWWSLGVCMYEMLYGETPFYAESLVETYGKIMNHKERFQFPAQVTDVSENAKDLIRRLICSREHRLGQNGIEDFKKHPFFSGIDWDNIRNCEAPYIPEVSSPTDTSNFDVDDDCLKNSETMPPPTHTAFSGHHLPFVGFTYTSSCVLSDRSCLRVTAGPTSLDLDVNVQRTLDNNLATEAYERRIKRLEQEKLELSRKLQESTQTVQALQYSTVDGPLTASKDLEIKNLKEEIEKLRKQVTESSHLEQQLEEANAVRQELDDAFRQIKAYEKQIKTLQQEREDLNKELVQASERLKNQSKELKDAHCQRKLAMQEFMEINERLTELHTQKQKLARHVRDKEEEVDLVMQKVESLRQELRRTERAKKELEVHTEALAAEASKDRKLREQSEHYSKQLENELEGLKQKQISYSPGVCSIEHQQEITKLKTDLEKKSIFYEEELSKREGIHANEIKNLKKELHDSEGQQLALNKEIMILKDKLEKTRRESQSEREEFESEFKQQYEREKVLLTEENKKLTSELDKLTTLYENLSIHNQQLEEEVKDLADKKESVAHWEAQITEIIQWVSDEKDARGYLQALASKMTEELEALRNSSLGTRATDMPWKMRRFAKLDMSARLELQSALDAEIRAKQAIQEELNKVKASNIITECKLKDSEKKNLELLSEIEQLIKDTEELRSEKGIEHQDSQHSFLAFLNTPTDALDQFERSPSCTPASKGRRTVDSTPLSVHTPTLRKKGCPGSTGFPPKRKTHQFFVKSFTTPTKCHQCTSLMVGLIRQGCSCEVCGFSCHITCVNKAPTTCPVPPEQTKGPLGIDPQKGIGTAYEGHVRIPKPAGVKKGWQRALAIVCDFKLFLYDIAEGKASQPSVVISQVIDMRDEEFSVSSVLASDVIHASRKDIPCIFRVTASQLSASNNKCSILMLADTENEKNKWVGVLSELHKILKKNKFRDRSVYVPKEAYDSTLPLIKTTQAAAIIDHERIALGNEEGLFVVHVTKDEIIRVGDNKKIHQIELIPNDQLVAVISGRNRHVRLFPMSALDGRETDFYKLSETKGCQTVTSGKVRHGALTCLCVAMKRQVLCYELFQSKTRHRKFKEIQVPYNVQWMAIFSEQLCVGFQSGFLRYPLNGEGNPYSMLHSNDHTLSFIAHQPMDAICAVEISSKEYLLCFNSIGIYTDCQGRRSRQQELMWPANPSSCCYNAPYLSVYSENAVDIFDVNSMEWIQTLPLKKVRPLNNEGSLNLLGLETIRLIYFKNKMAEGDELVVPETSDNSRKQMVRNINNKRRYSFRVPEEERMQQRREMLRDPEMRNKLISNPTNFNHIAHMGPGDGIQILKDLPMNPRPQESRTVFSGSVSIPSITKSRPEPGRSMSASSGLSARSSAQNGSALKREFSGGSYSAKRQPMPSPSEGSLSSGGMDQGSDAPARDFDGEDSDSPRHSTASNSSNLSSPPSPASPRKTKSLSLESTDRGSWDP
Phosphatidylinositol 4,5-bisphosphate 3-kinase catalytic subunit alpha isoform (Homo sapiens), P42336 [I800L], sequence (P42336 whole entry I800L, canonical isoform): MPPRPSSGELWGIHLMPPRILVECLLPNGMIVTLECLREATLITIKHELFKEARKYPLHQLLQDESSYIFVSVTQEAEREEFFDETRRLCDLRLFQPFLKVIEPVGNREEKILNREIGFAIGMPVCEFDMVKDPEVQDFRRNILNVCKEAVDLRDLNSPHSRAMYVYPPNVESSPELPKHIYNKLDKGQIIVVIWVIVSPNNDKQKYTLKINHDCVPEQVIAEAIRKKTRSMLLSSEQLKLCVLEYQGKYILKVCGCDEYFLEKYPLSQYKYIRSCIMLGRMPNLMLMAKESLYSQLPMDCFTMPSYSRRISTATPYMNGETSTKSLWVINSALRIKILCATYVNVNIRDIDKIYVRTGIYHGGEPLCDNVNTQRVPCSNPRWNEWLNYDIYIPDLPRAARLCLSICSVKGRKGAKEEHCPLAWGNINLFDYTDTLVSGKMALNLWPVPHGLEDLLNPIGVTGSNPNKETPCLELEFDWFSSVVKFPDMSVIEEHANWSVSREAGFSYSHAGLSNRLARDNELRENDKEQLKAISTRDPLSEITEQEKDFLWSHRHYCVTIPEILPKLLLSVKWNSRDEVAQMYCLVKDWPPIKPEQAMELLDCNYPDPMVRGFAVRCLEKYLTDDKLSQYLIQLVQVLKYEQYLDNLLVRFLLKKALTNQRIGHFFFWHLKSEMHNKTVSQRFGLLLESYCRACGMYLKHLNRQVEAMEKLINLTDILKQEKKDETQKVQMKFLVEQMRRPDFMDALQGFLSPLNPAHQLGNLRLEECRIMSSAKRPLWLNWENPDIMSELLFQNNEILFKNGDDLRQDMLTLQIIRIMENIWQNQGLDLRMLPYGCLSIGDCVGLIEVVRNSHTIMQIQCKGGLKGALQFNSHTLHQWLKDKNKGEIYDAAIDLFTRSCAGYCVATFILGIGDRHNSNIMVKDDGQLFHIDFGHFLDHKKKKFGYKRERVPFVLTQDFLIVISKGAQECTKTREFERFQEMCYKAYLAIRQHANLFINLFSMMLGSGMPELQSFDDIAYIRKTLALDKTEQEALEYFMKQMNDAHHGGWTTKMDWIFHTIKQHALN
Dual specificity protein kinase CLK3 (Homo sapiens), sequence (P49761 whole entry, looked up, canonical isoform): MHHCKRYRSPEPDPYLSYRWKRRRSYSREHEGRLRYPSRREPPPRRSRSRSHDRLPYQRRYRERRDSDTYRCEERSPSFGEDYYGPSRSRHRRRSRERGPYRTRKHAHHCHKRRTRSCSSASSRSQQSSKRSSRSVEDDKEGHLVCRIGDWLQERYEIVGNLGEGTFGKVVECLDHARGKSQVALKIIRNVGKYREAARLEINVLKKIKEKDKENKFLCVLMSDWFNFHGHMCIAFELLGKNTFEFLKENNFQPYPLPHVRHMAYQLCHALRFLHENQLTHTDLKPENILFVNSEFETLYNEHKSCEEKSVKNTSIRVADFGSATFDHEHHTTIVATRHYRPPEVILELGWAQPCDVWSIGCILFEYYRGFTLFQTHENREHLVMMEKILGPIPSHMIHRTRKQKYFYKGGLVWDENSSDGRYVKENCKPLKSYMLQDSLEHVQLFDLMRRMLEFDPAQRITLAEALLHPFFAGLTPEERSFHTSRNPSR
Aurora kinase B (Homo sapiens), sequence (Q96GD4 whole entry): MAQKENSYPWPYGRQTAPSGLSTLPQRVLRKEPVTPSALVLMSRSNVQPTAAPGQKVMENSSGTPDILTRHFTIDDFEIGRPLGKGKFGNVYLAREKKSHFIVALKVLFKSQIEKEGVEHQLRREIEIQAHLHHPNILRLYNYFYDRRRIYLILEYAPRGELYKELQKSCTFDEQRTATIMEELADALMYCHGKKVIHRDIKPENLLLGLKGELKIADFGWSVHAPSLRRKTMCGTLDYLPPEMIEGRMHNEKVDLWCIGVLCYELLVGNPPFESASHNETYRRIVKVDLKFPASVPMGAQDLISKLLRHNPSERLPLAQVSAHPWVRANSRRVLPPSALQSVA

SMILES: CS(=O)(=O)N1CCCC(NC(=O)[C@H](CCC2CCCCC2)NC(=O)c2ccc(CNc3ncnc4c3nnn4-c3ccccc3)cc2)C1 (stereo partly drawn) [SR-301]
- residual activity [1]: 100%
- residual activity [2]: 100%
- residual activity [3]: 100%
- residual activity [4]: 100%
- residual activity [5]: 84%
- residual activity [6]: 100%
- residual activity [7]: 79%
- residual activity [8]: 100%
- residual activity [9]: 100%
- residual activity [10]: 100%
- residual activity [11]: 85%
- residual activity [12]: 100%
- residual activity [13]: 100%
- residual activity [14]: 100%
- residual activity [15]: 94%
- residual activity [16]: 100%
- residual activity [17]: 91%
- residual activity [18]: 80%
- residual activity [19]: 99%
- residual activity [20]: 100%
- residual activity [21]: 100%
- residual activity [22]: 100%
- residual activity [23]: 100%
- residual activity [24]: 97%
- residual activity [25]: 100%
- residual activity [26]: 100%
- residual activity [27]: 83%
- residual activity [28]: 60%
- residual activity [29]: 100%
- residual activity [30]: 100%
- residual activity [31]: 100%
- residual activity [32]: 81%
- residual activity [33]: 100%
- residual activity [34]: 44%
- residual activity [35]: 90%
- residual activity [36]: 93%
- residual activity [37]: 100%
- residual activity [38]: 100%
- residual activity [39]: 100%
- residual activity [40]: 81%
- residual activity [41]: 100%
- residual activity [42]: 90%
- residual activity [43]: 85%
- residual activity [44]: 85%

SMILES: CS(=O)(=O)N1CCCC(NC(=O)[C@H](CCC2CCCCC2)NC(=O)c2ccc(CNC(=O)c3cnc4ccccn34)cc2)C1 (stereo partly drawn) [SR-302]
- residual activity [1]: 83%
- residual activity [2]: 79%
- residual activity [3]: 100%
- residual activity [4]: 95%
- residual activity [5]: 92%
- residual activity [6]: 100%
- residual activity [7]: 100%
- residual activity [8]: 100%
- residual activity [9]: 100%
- residual activity [10]: 85%
- residual activity [11]: 100%
- residual activity [12]: 99%
- residual activity [13]: 100%
- residual activity [14]: 100%
- residual activity [15]: 100%
- residual activity [16]: 89%
- residual activity [17]: 87%
- residual activity [18]: 100%
- residual activity [19]: 67%
- residual activity [20]: 100%
- residual activity [21]: 100%
- residual activity [22]: 100%
- residual activity [23]: 100%
- residual activity [24]: 100%
- residual activity [25]: 95%
- residual activity [26]: 91%
- residual activity [27]: 100%
- residual activity [28]: 64%
- residual activity [29]: 100%
- residual activity [30]: 100%
- residual activity [31]: 78%
- residual activity [32]: 100%
- residual activity [33]: 84%
- residual activity [34]: 100%
- residual activity [35]: 100%
- residual activity [36]: 100%
- residual activity [37]: 94%
- residual activity [38]: 97%
- residual activity [39]: 92%
- residual activity [40]: 69%
- residual activity [41]: 88%
- residual activity [42]: 83%
- residual activity [43]: 96%
- residual activity [44]: 85%
